Measured values: patent US20250195469A1, “COMPANION DIAGNOSTICS AND STRATEGIES FOR TREATMENT WITH AN ARYL HYDROCARBON RECEPTOR AGONIST COMPOUND” (AZORA THERAPEUTICS, INC., priority 2022, published 2025)
Like-named read-outs stand apart in the source and are kept apart here.

What was measured:
[1] = biological target: T1, AhR (Homo sapiens, UniProt P35869); test: Inhaled AhR antagonist combined with indirubin therapy; assay type: in vivo; details: two weeks, with nanoparticulate indirubin
T1 construct: takes a biopsy of the treated skin from this treated spot; from tissue; host or cells: human skin biopsy, epidermal cells
T1 sequence (P35869 11-848): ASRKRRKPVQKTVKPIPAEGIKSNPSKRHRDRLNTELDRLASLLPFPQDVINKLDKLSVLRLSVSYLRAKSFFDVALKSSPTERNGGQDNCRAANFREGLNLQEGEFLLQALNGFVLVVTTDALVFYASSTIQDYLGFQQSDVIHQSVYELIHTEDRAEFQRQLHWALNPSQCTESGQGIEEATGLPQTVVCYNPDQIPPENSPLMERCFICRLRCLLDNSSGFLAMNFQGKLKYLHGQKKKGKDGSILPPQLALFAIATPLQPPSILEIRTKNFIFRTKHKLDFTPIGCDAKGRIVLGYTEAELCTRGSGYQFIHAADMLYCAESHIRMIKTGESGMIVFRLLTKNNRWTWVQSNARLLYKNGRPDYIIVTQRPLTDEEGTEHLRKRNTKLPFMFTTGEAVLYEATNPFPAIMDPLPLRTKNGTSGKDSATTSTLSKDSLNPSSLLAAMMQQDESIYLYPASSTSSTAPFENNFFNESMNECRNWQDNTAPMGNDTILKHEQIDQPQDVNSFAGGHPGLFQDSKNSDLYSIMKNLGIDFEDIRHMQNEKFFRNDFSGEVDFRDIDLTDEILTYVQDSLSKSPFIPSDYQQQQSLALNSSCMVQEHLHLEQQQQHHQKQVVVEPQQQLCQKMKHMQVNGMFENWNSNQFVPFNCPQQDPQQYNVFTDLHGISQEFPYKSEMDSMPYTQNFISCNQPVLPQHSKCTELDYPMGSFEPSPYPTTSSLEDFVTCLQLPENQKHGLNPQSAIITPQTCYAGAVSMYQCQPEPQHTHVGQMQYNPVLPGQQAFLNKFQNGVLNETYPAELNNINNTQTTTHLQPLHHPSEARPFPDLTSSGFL
From the text: During the course of therapy with a nanoparticulate form of synthetic indirubin for the treatment of gastritis, a patient complains of ad adverse event, in this case shortness of breath and difficulty doing physical exercise. The patient is responding well to therapy but the doctor is concerned about possible development of additional PAH-like symptoms. The doctor maintains the indirubin therapy but prescribes the patient an inhalable AhR antagonist, in this case inhaled 1-Methyl-N-[2-methyl-4-[2-(2-methylphenyl)diazenyl]phenyl-1H-pyrazole-5-carboxamide (CH223191) that is designed to reduce AhR signaling in the lung epithelium.

[2] = test system: PBMCs; test: EROD activity of PBMCs stimulated with AhR agonist; assay type: cell-based, human; details: patient PBMCs, 24 hours, compared to healthy normal PBMCs
Experimental: Prior to starting therapy with a topical AhR agonist for the treatment of pustular psoriasis, a blood sample is collected. PBMCs are processed and sent out fresh for stimulation with and without the AhR agonist FICZ. After 24 hours, EROD activity is measured. […] The ratio of stimulated to unstimulated EROD activity may be indicative of baseline AhR activity and responsiveness to AhR therapy. […] Based on the data, the patient's dermatologist prescribes the topical AhR agonist for the treatment of pustular psoriasis.

[3] = test system: hamsters; details: cited from earlier work
[4] = test system: mice; details: chronic dosing, only starting after 15 days of exposure; cited from earlier work
[5] = test system: guinea pigs; details: cited from earlier work
[6] = test system: ALT and AST; test: Liver enzymes after indigo modified release tablet, with or without lead in dose; assay type: in vivo, human
Experimental: As such, a product label identified a clinical regiment whereby a lead in dose of 5 mg indigo is administered once daily for 2 consecutive days prior to beginning the 50 mg therapeutic dose.

[7] = test system: CYP1A2
Experimental: (§1) A patient with Crohn's disease is given 50 mg of indirubin in an immediate release tablet once daily. A diagnostic is set to evaluate the mRNA levels of both CYP1A1 and CYP1A2 in the blood using RT-PCR of peripheral blood mononuclear cell mRNA every two weeks.

[8] = test system: CYP1A1
Experimental: as §1

[9] = Experimental: A patient with pouchitis is being treated with an oral suspension containing 10 mg indirubin twice daily. Plasma samples are taken weekly during the first 6 weeks of therapy and sent out for PK analysis for indirubin levels. […] The physician reduces the dose to 2.5 mg once per day.
[10] = test system: relapsing-remitting multiple sclerosis patients; details: low dose (0.6 mg/day); cited from earlier work
[11] = test system: multiple sclerosis patients; details: Phase 3; cited from earlier work
[12] = Echocardiogram monitoring during linomide therapy (REMS); assay type: in vivo, human; details: oral tablet, after 6 months
From the text: Based on the label of an orally administered tablet containing linomide, a patient must enroll in a risk evaluation and mitigation strategy (REMS). In the case of this drug, patients must comply with ongoing echocardiogram monitoring requirements. […] The prescribing physician evaluates the echocardiogram an decides the patient should be discontinued. The physician passes this information along to the REMS program by logging the data into a secure server. Subsequently the server alerts the patient and the prescribing pharmacy that the patient is no longer eligible to refill their linomide tablet prescription.

[13] = AhR agonist metabolism in blood microsomes, AhR-luciferase reporter readout; assay type: in vitro ADME, human; details: 10 nM, 24 hours
Experimental: Prior to beginning therapy with oral meisoindigo for the treatment of rheumatoid arthritis, a physician orders a diagnostic to assess ability of the subject to adequately metabolize meisoindigo. Blood microsomes are extracted from the subject and incubated in medium containing 10 nM meisoindigo for 24 hours. The microsomes are removed via ultra-centrifugation and the remaining medium is added to a reporter cell line (such as product IB06001 sold by Indigo Biosciences) that expresses luciferase behind the promoter for human CYP1A1 and which can detect AhR agonist activity. […] Based on the results of this diagnostic, the physician believes the patient has a defect making them a poor metabolizer of meisoindigo and recommends against the use of meisoindigo due to the possibility of development of adverse events.

[14] = Headaches with delayed release indirubin, omeprazole lead in dose; details: 20 mg delayed-release capsule before delayed release indirubin, first week
[15] = test system: plaque psoriasis patients; details: phase 3, plaque psoriasis patients; cited from earlier work
[16] = 50 mg immediate release tablet once daily, after two weeks
[17] = two weeks after reduction to 10 mg every other day

Cc1ccccc1N=Nc1ccc(NC(=O)c2ccnn2C)c(C)c1 [CH223191]
shortness of breath after combination therapy [1]: no longer has shortness of breath

O=Cc1c2c(cc3c1=Nc1ccccc1-3)=Nc1ccccc1-2 [FICZ, 6-formylindolo[3,2−b]carbazole]
EROD activity after stimulation [2]: high EROD activity

Clc1cc2c(cc1Cl)Oc1cc(Cl)c(Cl)cc1O2 [TCDD, 2,3,7,8-tetrachlorodibenzo-p-dioxin]
LD50 [3]: over 5000 μg/kg | mean arterial blood pressure [4]: increased | LD50 [5]: 1 µg/kg

O=C1/C(=C2\Nc3ccccc3C2=O)Nc2ccccc21 [indigo]
patients with the ALT and AST increase ([6]; 50 mg twice daily modified release tablet, 2 days): 50% | increase in ALT and AST ([6]; 50 mg twice daily modified release tablet, 2 days following administration): 5 × | changes in ALT or AST levels ([6]; lead in dose 5 mg once daily for 2 days before 50 mg therapeutic dose, 2 days following therapeutic dosing): did not produce any notable changes

O=C1Nc2ccccc2/C1=C1/Nc2ccccc2C1=O [indirubin]
increase of CYP1A2 mRNA in PBMCs [7, 16]: 3 × | increase of CYP1A2 mRNA in PBMCs compared to baseline [7, 17]: 6 × | increase of CYP1A1 mRNA in PBMCs [8, 16]: 12 × | increase of CYP1A1 mRNA in PBMCs compared to baseline [8, 17]: 15 × | plasma indirubin level ([9]; week 1, oral suspension 10 mg twice daily): 5 ng/mL | plasma indirubin level ([9]; week 2, oral suspension 10 mg twice daily): 25 ng/mL | plasma indirubin level ([9]; week 3, 2.5 mg once per day): 2 ng/mL | plasma indirubin level ([9]; week 4, 2.5 mg once per day): 3 ng/mL | plasma indirubin level ([9]; week 5, 2.5 mg once per day): 2 ng/mL | plasma indirubin level ([9]; week 6, 2.5 mg once per day): 3 ng/mL

CCN(C(=O)c1c(O)c2c(Cl)cccc2n(C)c1=O)c1ccccc1 [laquinimod]
trial's primary endpoint [10]: failed to meet the trial's primary endpoint

CN(C(=O)c1c(O)c2ccccc2n(C)c1=O)c1ccccc1 [linomide, linomide (roquinimex)]
toxicity leading to termination of development [11]: cardiovascular toxicity, specifically pleuritis, pericarditis, and chest pain | echocardiogram findings [12]: signs of valvar heart disease

CN1C(=O)/C(=C2/C(=O)Nc3ccccc32)c2ccccc21 [meisoindigo]
fraction of added compound metabolized ([13]; microsomes from a healthy normal individual): 99% | metabolism in presence of microsomes ([13]; patient blood microsomes): little to no meisoindigo was metabolized

COc1ccc2[nH]c([S+]([O-])Cc3ncc(C)c(OC)c3C)nc2c1 (stereo not shown) [omeprazole]
effect of lead in dose on headaches [14]: reduce the development of headaches

CC(C)c1c(O)cc(/C=C/c2ccccc2)cc1O [tapinarof]
patients who developed inflammation of the hair follicle (folliculitis) [15]: Over 20%
